Laboratory results published in patent publication US20220081412A1, “QUINOLINYL-PYRAZINE-CARBOXAMIDE COMPOUNDS AND USES THEREOF” (The Regents of the University of Michigan, priority 2018, published 2022).

Test system: MIA PaCa-2 cells
Assay: Bru-seq analysis for nascent RNA synthesis (log2FC of genes, GSEA gene sets)
Assay type: cell-based, human
[1] = downregulated gene sets, TFBT, 4 h, MIA PaCa-2 cells
[2] = gene set ADDYA_ERYTHROID_DIFFERENTIATION_BY_HEMIN, 4 h
[3] = gene set AMIT_SERUM_RESPONSE_60_MCF10A, 4 h
[4] = gene set BURTON_ADIPOGENESIS_10, 4 h
[5] = gene set CHANG_CORE_SERUM_RESPONSE_DN, 4 h
[6] = gene set CUI_GLUCOSE_DEPRIVATION, 4 h
[7] = gene set DACOSTA_UV_RESPONSE_VIA_ERCC3_UP, 4 h
[8] = gene set DAZARD_RESPONSE_TO_UV_NHEK_UP, 4 h
[9] = gene set DIRMEIER_LMP1_RESPONSE_EARLY, 4 h
[10] = gene set ENK_UV_RESPONSE_KERATINOCYTE_UP, 4 h
[11] = gene set GEORGANTAS_HSC_MARKERS, 4 h
[12] = gene set GO_ALCOHOL_BIOSYNTHETIC_PROCESS, 4 h
[13] = gene set GO_ALCOHOL_METABOLIC_PROCESS, 4 h
[14] = gene set GO_CELLULAR_LIPID_CATABOLIC_PROCESS, 4 h
[15] = gene set GO_CELLULAR_RESPONSE_TO_TOPOLOGICALLY_INCORRECT_PROTEIN, 4 h
[16] = gene set GO_CHROMATIN_ASSEMBLY_OR_DISASSEMBLY, 4 h
[17] = gene set GO_DNA_PACKAGING_COMPLEX, 4 h
[18] = gene set GO_ER_NUCLEUS_SIGNALING_PATHWAY, 4 h
[19] = gene set GO_FATTY_ACID_BIOSYNTHETIC_PROCESS, 4 h
[20] = gene set GO_INTRINSIC_COMPONENT_OF_ENDOPLASMIC_RETICULUM_MEMBRANE, 4 h
[21] = gene set GO_IRE1_MEDIATED_UNFOLDED_PROTEIN_RESPONSE, 4 h
[22] = gene set GO_ISOPRENOID_BIOSYNTHETIC_PROCESS, 4 h
[23] = gene set GO_LYSOSOMAL_LUMEN, 4 h
[24] = gene set GO_NUCLEAR_NUCLEOSOME, 4 h
[25] = gene set GO_ORGANIC_HYDROXY_COMPOUND_BIOSYNTHETIC_PROCESS, 4 h
[26] = gene set GO_PROTEIN_DNA_COMPLEX, 4 h
[27] = gene set GO_PROTEIN_DNA_COMPLEX_SUBUNIT_ORGANIZATION, 4 h
[28] = gene set GO_REGULATION_OF_ENDOPLASMIC_RETICULUM_STRESS_INDUCED_INTRINSIC_APOPTOTIC_SIGNALING_PATHWAY, 4 h
[29] = gene set GO_RESPONSE_TO_ENDOPLASMIC_RETICULUM_STRESS, 4 h
[30] = gene set GO_RESPONSE_TO_TOPOLOGICALLY_INCORRECT_PROTEIN, 4 h
[31] = gene set GO_SMALL_MOLECULE_BIOSYNTHETIC_PROCESS, 4 h
[32] = gene set GO_STEROID_BIOSYNTHETIC_PROCESS, 4 h
[33] = gene set GO_STEROID_METABOLIC_PROCESS, 4 h
[34] = gene set GO_STEROL_BIOSYNTHETIC_PROCESS, 4 h
[35] = gene set GO_STEROL_METABOLIC_PROCESS, 4 h
[36] = gene set HALLMARK_ADIPOGENESIS, 4 h
[37] = gene set HALLMARK_ANDROGEN_RESPONSE, 4 h
[38] = gene set HALLMARK_APOPTOSIS, 4 h
[39] = gene set HALLMARK_CHOLESTEROL_HOMEOSTASIS, 4 h
[40] = gene set HALLMARK_COAGULATION, 4 h
[41] = gene set HALLMARK_DNA_REPAIR, 4 h
[42] = gene set HALLMARK_EPITHELIAL_MESENCHYMAL_TRANSITION, 4 h
[43] = gene set HALLMARK_ESTROGEN_RESPONSE_EARLY, 4 h
[44] = gene set HALLMARK_ESTROGEN_RESPONSE_LATE, 4 h
[45] = gene set HALLMARK_FATTY_ACID_METABOLISM, 4 h
[46] = gene set HALLMARK_GLYCOLYSIS, 4 h
[47] = gene set HALLMARK_HEME_METABOLISM, 4 h

In the case of CCN(CC)CCCC(C)Nc1cnc(C(=O)Nc2cc(C)cc3cccnc23)cn1 (stereo not drawn) [J4, 5-((5-(diethylamino)pentan-2-yl)amino)-N-(6-methylquinolin-8-yl)pyrazine-2-carboxamide], the “ES PBX1_02” value [1] is reported as −0.282, the “ES PIT1_Q6” value [1] is reported as −0.263 and the “ES POU1F1_Q6” value [1] is reported as −0.236. For the same molecule, the “ES TAANNYSGCG_UNKNOWN” value [1] was −0.253, the “ES TAAWWATAG_RSRFC4_Q2” value [1] was −0.271 and the “ES TAAYNRNNTCC_UNKNOWN” value [1] was −0.314. The “ES YKACATTT_UNKNOWN” value [1] was −0.221, the “NES BRN2_01” value [1] was −1.086 and the “NES CDPCR1_01” value [1] was −1.030. For the same molecule, the “NES CDP_01” value [1] was −1.041, the “NES EN1_01” value [1] was −1.062 and the “NES FOXJ2_02” value [1] was −1.154. For the same molecule, the “NES GGCKCATGS_UNKNOWN” value [1] was −1.621, the “NES HMEF2_Q6” value [1] was −1.037 and the “NES HNF1_Q6” value [1] was −1.145. For the same molecule, the “NES HOX13_01” value [1] was −1.144, the “NES IK1_01” value [1] was −1.074 and the “NES IRF2_01” value [1] was −1.322. For the same molecule, the “NES MEF2_02” value [1] was −0.965, the “NES MEF2_Q6_01” value [1] was −0.985 and the “NES MEIS1BHOXA9_01” value [1] was −1.269. For the same molecule, the “NES NKX3A_01” value [1] was −1.213, the “NES PAX8_01” value [1] was −1.304 and the “NES PBX1_02” value [1] was −1.130. For the same molecule, the “NES PIT1_Q6” value [1] was −1.156, the “NES POU1F1_Q6” value [1] was −1.032 and the “NES TAANNYSGCG_UNKNOWN” value [1] was −1.012. The “NES TAAWWATAG_RSRFC4_Q2” value [1] was −1.112, the “NES TAAYNRNNTCC_UNKNOWN” value [1] was −1.303 and the “NES YKACATTT_UNKNOWN” value [1] was −1.039. The ES [2] was 0.708, the NES [2] was 2.307 and the ES [3] was 0.728. The NES [3] was 2.228, the ES [4] was 0.790 and the NES [4] was 2.254. The ES [5] was 0.624, the NES [5] was 2.370 and the ES [6] was 0.760. For the same molecule, the NES [6] was 2.383, the ES [7] was 0.569 and the NES [7] was 2.301. It also gave an ES [8] of 0.602, an NES [8] of 2.291 and an ES [9] of 0.764. The NES [9] was 2.410, the ES [10] was 0.590 and the NES [10] was 2.464. The ES [11] was 0.736, the NES [11] was 2.234 and the ES [12] was 0.728. For the same molecule, the NES [12] was 2.531, the ES [13] was 0.543 and the NES [13] was 2.127. It also gave an ES [14] of 0.577, an NES [14] of 2.080 and an ES [15] of 0.635. It also gave an NES [15] of 2.333, an ES [16] of 0.576 and an NES [16] of 2.165. For the same molecule, the ES (gene set GO_DNA_PACKAGING, 4 h) was 0.570, the NES (gene set GO_DNA_PACKAGING, 4 h) was 2.161 and the ES [17] was 0.755. For the same molecule, the NES [17] was 2.422, the ES [18] was 0.739 and the NES [18] was 2.156. It also gave an ES [19] of 0.626, an NES [19] of 2.043 and an ES [20] of 0.577. For the same molecule, the NES [20] was 2.075, the ES [21] was 0.690 and the NES [21] was 2.300. For the same molecule, the ES [22] was 0.796, the NES [22] was 2.093 and the ES [23] was 0.637. For the same molecule, the NES [23] was 2.060, the ES [24] was 0.832 and the NES [24] was 2.218. For the same molecule, the ES [25] was 0.651, the NES [25] was 2.372 and the ES [26] was 0.619. It also gave an NES [26] of 2.288, an ES [27] of 0.521 and an NES [27] of 2.041. It also gave an ES [28] of 0.774, an NES [28] of 2.132 and an ES [29] of 0.526. The NES [29] was 2.067, the ES [30] was 0.616 and the NES [30] was 2.337. It also gave an ES [31] of 0.555, an NES [31] of 2.227 and an ES [32] of 0.784. The NES [32] was 2.632, the ES [33] was 0.667 and the NES [33] was 2.432. The ES [34] was 0.878, the NES [34] was 2.656 and the ES [35] was 0.748. It also gave an NES [35] of 2.604, an ES [36] of 0.465 and an NES [36] of 1.784. For the same molecule, the ES [37] was 0.529, the NES [37] was 1.875 and the ES [38] was 0.485. It also gave an NES [38] of 1.804, an ES [39] of 0.759 and an NES [39] of 2.533. The ES [40] was 0.516, the NES [40] was 1.624 and the ES [41] was 0.377. For the same molecule, the NES [41] was 1.422, the ES [42] was 0.407 and the NES [42] was 1.436. The ES [43] was 0.458, the NES [43] was 1.719 and the ES [44] was 0.443. The NES [44] was 1.631, the ES [45] was 0.551 and the NES [45] was 2.054. It also gave an ES [46] of 0.417, an NES [46] of 1.603 and an ES [47] of 0.389. For the same molecule, the NES [47] was 1.480, the ES (gene set HALLMARK_HYPOXIA, 4 h) was 0.591 and the NES (gene set HALLMARK_HYPOXIA, 4 h) was 2.235.
